Where two headings read alike, the source gives them in different places.

Series [1] deals with T1, OATP2A1 (Homo sapiens, UniProt Q92959). Kind of series: Cellular uptake assay with fluorescent substrate of OATP2A1 in HEK293-OATP2A1 cells. The series is classed as cell-based. As to the method: Key reagents—6-Carboxyfluorescein (6-CF) was purchased from Toronto Research Chemicals (Cat. No. C178325); 5,6-carboxy-SNARF-1 (5,6-Carboxy-seminaphthorhodafluor-1) was obtained from Thermo Fisher Scientific (Cat. No. C1270).
(§1) Assay procedure—HEK293-OATP2A1 cells and the vector control HEK293-VC-Neo cells were plated at 250,000 cells per well on 24 well poly-D-Lysine coated (BioCoat™) plates (Corning) in complete DMEM medium and grown for 48 hrs at 37 C.
(§2) […] For incubations with 6-CF, 1×HBSS pH 5.6 was used without pH adjustment. For the uptake of 5,6-carboxy-SNARF-1, the pH of 1×HBSS was adjusted to 7.4 with Bis-Tris/HCl. After the incubation, the media was aspirated, the cells were washed twice with ice-cold HBSS and lysed with 450 μL of the lysis buffer without the protease inhibitors. Two 150-μL samples from each well of the 24-well plates were taken and transferred into separate wells on black opaque 96-well Opti-plates (PerkinElmer). Fluorescence intensities were measured using λex 483(14) nm and λem 530(30) for 6-CF and λex 576(15) nm and λem 640(10) for 5,6-carboxy-SNARF-1 on a CLARIOstar® multimode microplate reader (BMG LABTECH). 20 μL of the samples used for fluorescence measurement were transferred into clear polystyrene flat-bottom 96-well plates (Thermo Fisher Scientific) and protein concentration was determined.
(§3) Concentrations of the fluorescent substrates of OATP2A1 in cell lysates were determined by measuring fluorescence intensities of the lysates and calculating concentrations of either 6-CF or 5,6-carboxy-SNARF-1 using linear calibration curves obtained from fluorescence intensities of the standard solutions of the fluorescent probes prepared in the same lysis buffer on the same 96-well assay plate. In order to account for differences in cell densities between the wells, protein concentration in the lysates was measured and used for calculating normalized uptake of the fluorescent substrates as follows:
(§4) The IC50 values were calculated from non-linear 4-parameter fit of the % Inhibition values vs. concentration of the inhibitors using GraphPad Prism 5 software. The same software was used for obtaining KM and Vmax values from a non-linear fit of the rate vs. substrate concentration fit into classic Michaelis-Menten equation: […]
Where: • CS is the substrate concentration in cell lysate • CP is the protein concentration in cell lysate • NUTC is the normalized uptake of the substrate in the presence of test article or inhibitor • NUHEK293-VC-Neo is the uninhibited (0.1% DMSO) normalized uptake by vector control cells • NUHEK293-OAM2A1 is the uninhibited (0.1% DMSO) normalized uptake by HEK293-OATP2A1 cells • Vt is the rate of the substrate uptake expressed as Normalized Uptake • Vmax is the calculated maximal rate of the substrate uptake by HEK293-OATP2A1 cells • S is the concentration of the fluorescent substrate of OATP2A1 • KM is the calculated Michaelis constant.

For series [2], the system named is HEK293-VC-Neo cells. Kind of series: Cellular uptake of fluorescent substrate by vector control cells. The series is classed as cell-based, human. As to conditions: first 30 min of the assay (FIG. 6A, pH 7.5). As to the method:
as §1
as §2, with “Two 150-μL samples from each well of the 24-well plates were taken and transferred into separate wells on black opaque 96-well Opti-plates (PerkinElmer).” left out
Concentrations of the fluorescent substrates of OATP2A1 in cell lysates were determined by measuring fluorescence intensities of the lysates and calculating concentrations of either 6-CF or 5,6-carboxy-SNARF-1 using linear calibration curves obtained from fluorescence intensities of the standard solutions of the fluorescent probes prepared in the same lysis buffer on the same 96-well assay plate. […]

Series [3] concerns the target T1, OATP2A1. As to conditions: published potencies of the OATP2A1 inhibitors; read-out: IC50, Literature (Kamo et al., J Pharma Sci, 2017); cited from earlier work.
For series [4], the target named is T1, OATP2A1. Briefly: OATP2A1 inhibition assay, cellular uptake of 5,6-Carboxy-SNARF with HEK293-OATP2A1 cells. The note with it: HEK293-OATP2A1 cells, 5,6-Carboxy-SNARF substrate, pH 7.4. The series is classed as cell-based. As to the method: as §1
(§5) Cellular uptake of the fluorescent substrates 6-CF and 5,6-carboxy-SNARF-1 was assessed by incubating the HEK293-OATP2A1 and HEK293-VC-Neo cells with 10 μM 6-CF and 5 μM 5,6-carboxy-SNARF-1 for 15 and 20 min, correspondingly. For incubations with 6-CF, 1×HBSS pH 5.6 was used without pH adjustment. For the uptake of 5,6-carboxy-SNARF-1, the pH of 1×HBSS was adjusted to 7.4 with Bis-Tris/HCl. After the incubation, the media was aspirated, the cells were washed twice with ice-cold HBSS and lysed with 450 μL of the lysis buffer without the protease inhibitors. Two 150-μL samples from each well of the 24-well plates were taken and transferred into separate wells on black opaque 96-well Opti-plates (PerkinElmer). Fluorescence intensities were measured using λex 483(14) nm and λem 530(30) for 6-CF and λex 576(15) nm and λem 640(10) for 5,6-carboxy-SNARF-1 on a CLARIOstar® multimode microplate reader (BMG LABTECH). 20 μL of the samples used for fluorescence measurement were transferred into clear polystyrene flat-bottom 96-well plates (Thermo Fisher Scientific) and protein concentration was determined.
All compounds were acquired from Sigma-Aldrich as solid powders and 10 mM stocks were made either in DMSO or HBSS (see Table 1). Serial dilutions of the compounds were made using 3.162-fold […] dilution factor either with DMSO or HBSS at the concentrations 1,000 higher than the final concentrations in the assay. These 1,000× solutions were further diluted 1:100 with HBSS in 2-mL polypropylene deep 96-well block (VWR) to make 10× working stock solutions of the inhibitors.
HEK293-OATP2A1 and HEK293-VC-Neo cells were cultured. The media was aspirated and 800 μL of HBSS was added to each well followed by the addition of 100 μL of the 10× working stock solutions of the inhibitors. The plates were incubated for 5 min at RT, and the assay was started by the addition of 100 μL of either 100 μM 6-CF or 50 μM 5,6-carboxy-SNARF-1 in HBSS.
as §3
(§6) Using uninhibited normalized uptake values obtained with HEK293-OATP2A1 and HEK293-VC-Neo cells in 0.1% DMSO in HBSS as the high and low controls of the assay, the % Control and % Inhibition values were calculated as follows: […]
as §4

Series [5] has as its target T1, OATP2A1. Kind of series: OATP2A1 inhibition assay, cellular uptake of 6-CF with HEK293-OATP2A1 cells. It is filed as cell-based. As to conditions: 6-CF substrate, pH 5.5. How it is done:
as §1, §5
All compounds were acquired from Sigma-Aldrich as solid powders and 10 mM stocks were made either in DMSO or HBSS (see Table 1). Serial dilutions of the compounds were made using 3.162-fold […] dilution factor either with DMSO or HBSS at the concentrations 1,000 higher than the final concentrations in the assay. […]
as §3, §6
The IC50 values were calculated from non-linear 4-parameter fit of the % Inhibition values vs. concentration of the inhibitors using GraphPad Prism 5 software. […]

Consider “5,6-Carboxy-seminaphthorhodafluor-1 [5,6-Carboxy-SNARF]”, for which the “S:B in uptake assay” value in series [1] (HEK293-OATP2A1 cell line, time-course, pH 7.5 (FIG. 6A)) is on record as 142. Besides, the “initial rate of the uptake” value in series [1] (HEK293-OATP2A1 cells, first 30 min of the assay (FIG. 6A, pH 7.5)) came out at 99.1 pmol/mg/min; in series [2] it was 0.7 pmol/mg/min. Moreover, the Km in series [1] (OATP2A1-mediated uptake in HEK293-OATP2A1 cell line, Michaelis-Menten fit (FIG. 5)) is 29 ± 9 µM. The transporter specificity entry in series [1] (OATP2A1 vs. OATP2B1 transporters (FIG. 4A)) is given as “specific for OATP2A1 vs. OATP2B1”.

As for `O=C(O)c1ccc2c(c1)C1(OC2=O)c2ccc(O)cc2Oc2cc(O)ccc21` [Compound 6-CF, 6-Carboxyfluorescein], in series [1] (FIG. 2, vs vector control cells HEK-VC-Neo), the “rate of uptake by HEK293-OATP2A1 cell line compared to the control cells” value was at least 230 fold. Moreover, the “uptake by HEK293-OATP2A1 cell line vs rate of uptake by the control cells” value in series [1] (pH 6.5 (FIG. 6B)) was 233 times; in series [1] (sentence following the initial rates of FIG. 6A), “more than 1400 times”.

On to `CCCCc1nc(Cl)c(CO)n1Cc1ccc(-c2ccccc2-c2nn[nH]n2)cc1` [Losartan], for which the IC50 in series [3] is 1760 nM; in series [4] it was 1210 nM; in series [5], 1280 nM.

With `CCCc1nc(C(C)(C)O)c(C(=O)O)n1Cc1ccc(-c2ccccc2-c2nnn[nH]2)cc1` [Olmesartan], the IC50 in series [3] is 970 nM; in series [4] it was 554 nM; in series [5] it was 492 nM.

Turning to `O=C(Nc1cccc2c(=O)cc(-c3nnn[nH]3)oc12)c1ccc(OCCCCc2ccccc2)cc1` [Pranlukast], the IC50 is 550 nM in series [3], 148 nM in series [4] and 142 nM in series [5].

On to `Cc1ccc(C(=O)Nc2ccc(S(=O)(=O)O)c3cc(S(=O)(=O)O)cc(S(=O)(=O)O)c23)cc1NC(=O)c1cccc(NC(=O)Nc2cccc(C(=O)Nc3cc(C(=O)Nc4ccc(S(=O)(=O)O)c5cc(S(=O)(=O)O)cc(S(=O)(=O)O)c45)ccc3C)c2)c1` [Suramin], for which the values for the IC50 in series [3], in series [4] and in series [5] were 170 nM, 186 nM and 222 nM, respectively.

Turning to `COc1cc(C(=O)NS(=O)(=O)c2ccccc2C)ccc1Cc1cn(C)c2ccc(NC(=O)OC3CCCC3)cc12` [Zafirlukast], the half-maximal inhibitory concentration (IC50) is 1600 nM in series [3] and 1110 nM in series [4].

As usually defined, the Km is the substrate concentration at which the rate is half of its maximum. Broadly, the IC50 is the midpoint of a concentration-inhibition curve.

Source of the values: patent US20220057405A1, “CELLS AND METHODS FOR EVALUATING THE ACTIVITY OF ORGANIC ANION TRANSPORTING POLYPEPTIDE 2A1 (OATP2A1)” (ABSORPTION SYSTEMS LLC, priority 2019, published 2022).
